The text below walks through data of patent US20240173440A1, “HIGH PURITY COPPER RADIOPHARMACEUTICAL COMPOSITIONS AND DIAGNOSTIC AND THERAPEUTIC USES THEREOF” (Nuclidium AG, priority 2022, published 2024).

Data set [1] is described as follows: Pharmacokinetics (biodistribution 1-24 h) in non-tumor bearing mice. Type of data set: in vivo. To be noted: for tissue uptake at 1 h / tissue uptake at 4 h / tissue uptake at 12 h / tissue uptake at 24 h: female, BALB/c, mouse, 200 umol, total radioactivity; for tissue uptake at 1 h: 1 hour after injection; for tissue uptake at 1 h / tissue uptake at 4 h: ^61Cu; for tissue uptake at 4 h: 4 hours after injection; for tissue uptake at 12 h: 12 hours after injection; for tissue uptake at 12 h / tissue uptake at 24 h: ^64Cu; for tissue uptake at 24 h: 24 hours after injection. How it is done: The biodistribution at the investigate time points was performed as described in the Example 9. The data were combined with the results obtained from the groups of xenografts at 1 hour and 4 hours p.i., as the biodistribution in nude mice was the same as in the healthy mice. The results were expressed as described in the Example 10.

The nature of a further data set: in vivo. The settings on record: athymic nude Foxn1+Foxn1+, mouse, iv, 200 umol, total radioactivity.
Data set [2] can be described thus: Lipophilicity, log D by shake-flask method (1-octanol/PBS pH 7.4). Type of data set: physicochemical. To be noted: Table 17, mean ± SD. How it is done:
The radiotracer (1 μM) was added to a 50:50 pre-saturated mixture of 1-octanol and phosphate buffered saline (PBSpH 7.4). The solution was vortexed for 30 min and then centrifuged at 3,000 rpm to achieve a phase separation. Aliquots from each phase were collected and measured in a gamma-counter. The distribution coefficient was calculated as the average of the logarithmic values of the ratio between the radioactivity in the organic and the PBS phase.
Table 17. Lipophilicity expressed as the log distribution coefficient D (log D(Octanol/PBS pH7.4)) of ^61Cu-radiotracers versus ^68Ga-radiotracers (reference radiotracers).
In a pre-lubricated Eppendorf tube, a pre-saturated mixture of 500 μL of 1-octanol and 500 μL of PBS pH 7.4 (phosphate-buffered saline) were added. An aliquot of […] in 10 μL of the radioligand was added to this mixture, shaken for 30 min, and then centrifuged at 3000 rcf for 10 min to achieve phase separation. Aliquots of 100 μL were removed from the 1-octanol and from the PBS phases, and the activity was measured in a […]. The partition coefficient was calculated as the average log ratio value of the radioactivity in the organic fraction and PBS fraction.

The next data set has as its system LNCaP xenografts. Briefly: Quantitative biodistribution in LNCaP xenografted mice. Type of data set: in vivo. The settings on record: for Biodistribution Adrenal / Biodistribution Blood / Biodistribution Bone / Biodistribution Heart / Biodistribution Intestine / Biodistribution Kidney / Biodistribution LNCaP-tumor / Biodistribution Liver / Biodistribution Lung / Biodistribution Muscle / Biodistribution Pancreas / Biodistribution Salivary gland / Biodistribution Spleen / Biodistribution Stomach / Ratio Tumor/Blood / Ratio Tumor/Kidney / Ratio Tumor/Liver / Ratio Tumor/Muscles: LNCap xenograft mice.

[3] abbreviates: adrenal, read-out: Biodistribution Adrenal.
Where [4] appears, read: blood, read-out: Biodistribution Blood.
Setting [5] is: femur, read-out: Biodistribution Femur.
[6] abbreviates: heart, read-out: Biodistribution Heart.
Setting [7] is: intestine, read-out: Biodistribution Intestine.
[8] abbreviates: kidneys, read-out: Biodistribution Kidneys.
Setting [9] is: liver, read-out: Biodistribution Liver.
Setting [10] is: lung, read-out: Biodistribution Lung.
Where [11] appears, read: muscle, read-out: Biodistribution Muscles.
Setting [12] is: pancreas, read-out: Biodistribution Pancreas.
Where [13] appears, read: pituitary, read-out: Biodistribution Pituitary.
The mark [14] stands for this setting: spleen, read-out: Biodistribution Spleen.
Where [15] appears, read: stomach, read-out: Biodistribution Stomach.

The structures appear in SMILES notation. Where two headings read alike, the source gives them in different places.

Protocol for in vivo: The tumors were allowed to grow for 1-3 weeks before commencement of the experiments.
The mice were randomly distributed in groups and euthanized at 1 and at 4 hours post-injection. The organs of interest were collected, rinsed, blotted, weighed and counted in a gamma counter. The results are expressed as percentage of injected activity per gram (% IA/g), representing the mean±standard deviation of n=4-8 mice per group and they were obtained by extrapolation from counts of an aliquot taken from the injected solution as standard.
The mice were randomly distributed in groups, injected with the radiotracer under investigation and euthanized at 1 and at 4 hours post-injection of the radiotracers under investigation. The organs of interest were collected, rinsed, blotted, weighed and counted in a gamma counter. The results are expressed as percentage of injected activity per gram (% IA/g), representing the mean±standard deviation of all mice per group and they were obtained by extrapolation from counts of an aliquot taken from the injected solution as standard.
The mice were randomly distributed in groups and euthanized at 4 hours post-injection. The organs of interest were collected, rinsed, blotted, weighed, and their respective radioactivity was counted in a gamma counter.

Take `C[C@@H](O)[C@@H]1NC(=O)[C@H](CCCCN)NC(=O)[C@@H](Cc2c[nH]c3ccccc23)NC(=O)[C@H](Cc2ccc(O)cc2)NC(=O)[C@@H](NC(=O)[C@@H](Cc2ccccc2)NC(=O)CCC(C(=O)O)N2CCN(CC(=O)O)CCN(CC(=O)O)CC2)CSSC[C@@H](C(=O)N[C@H](CO)[C@@H](C)O)NC1=O` (single isomer, unassigned) [[^61/^64Cu]Cu-NODAGA-TOC, metal not drawn]: the tissue uptake at 1 h in data set [1] (setting [3]) was determined as 1.06 ± 0.24 %ID/g; in data set [1] (setting [4]), 0.24 ± 0.08 %ID/g; in data set [1] (setting [5]) it was 0.45 ± 0.14 %ID/g; in data set [1] (setting [6]) it was 0.17 ± 0.03 %ID/g; in data set [1] (setting [7]), 0.96 ± 0.12 %ID/g; in data set [1] (setting [8]), 17.2 ± 4.46 %ID/g. Moreover, the tissue uptake at 1 h amounted to 0.35 ± 0.08 %ID/g in data set [1] (setting [9]); 1.07 ± 0.17 %ID/g in data set [1] (setting [10]); 0.16 ± 0.05 %ID/g in data set [1] (setting [11]); 2.71 ± 0.4 %ID/g in data set [1] (setting [12]); 3.39 ± 1.11 %ID/g in data set [1] (setting [13]); 0.23 ± 0.04 %ID/g in data set [1] (setting [14]). The tissue uptake at 1 h in data set [1] (setting [15]) came out at 2.62 ± 0.48 %ID/g. The tissue uptake at 4 h was 0.63 ± 0.22 %ID/g in data set [1] (setting [3]); 0.04 ± 0.02 %ID/g in data set [1] (setting [4]); 0.28 ± 0.11 %ID/g in data set [1] (setting [5]); 0.07 ± 0.02 %ID/g in data set [1] (setting [6]); 0.69 ± 0.19 %ID/g in data set [1] (setting [7]); 7.64 ± 3.85 %ID/g in data set [1] (setting [8]). Besides, the tissue uptake at 4 h is 0.28 ± 0.08 %ID/g in data set [1] (setting [9]); 0.5 ± 0.24 %ID/g in data set [1] (setting [10]); 0.07 ± 0.03 %ID/g in data set [1] (setting [11]); 0.6 ± 0.19 %ID/g in data set [1] (setting [12]); 2.71 ± 1.84 %ID/g in data set [1] (setting [13]); 0.1 ± 0.03 %ID/g in data set [1] (setting [14]). Moreover, the tissue uptake at 4 h in data set [1] (setting [15]) was 1.35 ± 0.26 %ID/g. Moreover, the tissue uptake at 12 h in data set [1] (setting [4]) was 0.04 ± 0.01 %ID/g; in data set [1] (setting [6]), 0.09 ± 0.02 %ID/g; in data set [1] (setting [11]) it was 0.02 ± 0.01 %ID/g; in data set [1] (setting [14]) it was 0.1 ± 0.02 %ID/g. Moreover, the tissue uptake at 24 h was 0.03 %ID/g in data set [1] (setting [4]); 0.06 ± 0.01 %ID/g in data set [1] (setting [5]); 0.07 ± 0.02 %ID/g in data set [1] (setting [6]); 0.01 %ID/g in data set [1] (setting [11]); 0.07 ± 0.01 %ID/g in data set [1] (setting [12]); 0.07 ± 0.02 %ID/g in data set [1] (setting [14]). Further, in data set [1] (healthy mice, 1 to 24 hours after injection), the blood clearance result was “very fast blood clearance”.

For the compound `C[C@@H](O)[C@@H]1NC(=O)[C@H](CCCCN)NC(=O)[C@@H](Cc2c[nH]c3ccccc23)NC(=O)[C@H](Cc2ccc(O)cc2)NC(=O)[C@@H](NC(=O)[C@@H](Cc2ccccc2)NC(=O)CCC(C(=O)O)N2CCN(CC(=O)O)CCN(CC(=O)O)CC2)CSSC[C@@H](C(=O)N[C@H](CO)[C@@H](C)O)NC1=O` (single isomer, unassigned) [[^61Cu]Cu-NODAGA-TOC, metal not drawn], the tissue uptake at 1 h in the data set “in vivo” (Biodistribution HEK-SST2) was 8.88 ± 3.19 %ID/g; in “in vivo” (Biodistribution Kidney), 12.5 ± 2.25 %ID/g.

As for `C[C@@H](O)[C@@H]1NC(=O)[C@H](CCCCN)NC(=O)[C@@H](Cc2c[nH]c3ccccc23)NC(=O)[C@H](Cc2ccc(O)cc2)NC(=O)[C@@H](NC(=O)[C@@H](Cc2ccccc2)NC(=O)CCC(C(=O)O)N2CCN(CC(=O)O)CCN(CC(=O)O)CC2)CSSC[C@@H](C(=O)N[C@H](CO)[C@@H](C)O)NC1=O` (single isomer, unassigned) [[^68Ga]Ga-NODAGA-TOC, metal not drawn], the logD in data set [2] (pH 7.4, shake-flask, read-out: log D(O/PBS pH 7.4)) is -2.48 ± 0.3.

With `O=C(O)CC[C@H](NC(=O)N[C@@H](CCCCNC(=O)[C@H](Cc1ccc2ccccc2c1)NC(=O)c1ccc(CNC(=O)[C@H](CCC(=O)O)NC(=O)[C@H](CCC(=O)O)NC(=O)c2ccc([18F])nc2)cc1)C(=O)O)C(=O)O` [[^18F]PSMA-1007], the tumor uptake in the data set with LNCaP xenografts (4h p.i., LNCaP xenograft mice, comparison with reference radiotracer, p=0.0145) is given as 6.28±2.19 % IA/g. Further, in the data set with LNCaP xenografts (1 h after injection), the “Biodistribution Adrenal” value is recorded as 7.18 ± 2.20 % IA/g, the “Biodistribution Blood” value was 0.41 ± 0.11 % IA/g, the “Biodistribution Bone” value amounted to 0.94 ± 0.13 % IA/g and the “Biodistribution Heart” value was 1.25 ± 0.29 % IA/g. In the data set with LNCaP xenografts (1 h after injection), the “Biodistribution Intestine” value came out at 1.04 ± 0.33 % IA/g, the “Biodistribution Kidney” value is on record as 100 ± 17 % IA/g, the “Biodistribution LNCaP-tumor” value is reported as 9.70 ± 2.57 % IA/g and the “Biodistribution Liver” value was determined as 0.93 ± 0.26 % IA/g. In addition, in the data set with LNCaP xenografts (1 h after injection), the “Biodistribution Lung” value is on record as 2.08 ± 0.24 % IA/g, the “Biodistribution Muscle” value is reported as 0.53 ± 0.09 % IA/g, the “Biodistribution Pancreas” value was found to be 1.32 ± 0.58 % IA/g and the “Biodistribution Salivary gland” value came to 2.54 ± 0.72 % IA/g. In the data set with LNCaP xenografts (1 h after injection), the “Biodistribution Spleen” value turned out to be 11.0 ± 1.1 % IA/g, the “Biodistribution Stomach” value worked out at 0.75 ± 0.15 % IA/g, the “Ratio Tumor/Blood” value is listed as 25.8 ± 11.5 and the “Ratio Tumor/Kidney” value came out at 0.10 ± 0.03. Also, in the data set with LNCaP xenografts (1 h after injection), the “Ratio Tumor/Liver” value was determined as 11.3 ± 4.5 and the “Ratio Tumor/Muscles” value is reported as 19.2 ± 6.5. In the data set on LNCaP xenografts (4 h after injection), the “Biodistribution Adrenal” value is 8.03 ± 2.66 % IA/g, the “Biodistribution Blood” value was found to be 0.17 ± 0.04 % IA/g, the “Biodistribution Bone” value was determined as 0.62 ± 0.11 % IA/g and the “Biodistribution Heart” value is 0.53 ± 0.23 % IA/g. In the data set on LNCaP xenografts (4 h after injection), the “Biodistribution Intestine” value was determined as 0.43 ± 0.22 % IA/g, the “Biodistribution Kidney” value is 132 ± 9 % IA/g, the “Biodistribution LNCaP-tumor” value is recorded as 6.28 ± 2.19 % IA/g and the “Biodistribution Liver” value stood at 0.32 ± 0.16 % IA/g. Moreover, in the data set on LNCaP xenografts (4 h after injection), the “Biodistribution Lung” value amounted to 1.61 ± 0.58 % IA/g, the “Biodistribution Muscle” value was 0.27 ± 0.11 % IA/g, the “Biodistribution Pancreas” value is given as 0.80 ± 0.32 % IA/g and the “Biodistribution Salivary gland” value was 1.62 ± 0.43 % IA/g. In the data set on LNCaP xenografts (4 h after injection), the “Biodistribution Spleen” value is given as 8.33 ± 2.11 % IA/g, the “Biodistribution Stomach” value is listed as 0.47 ± 0.16 % IA/g, the “Ratio Tumor/Blood” value came out at 42.7 ± 16.4 and the “Ratio Tumor/Kidney” value is 0.04 ± 0.01. Also, in the data set with LNCaP xenografts (4 h after injection), the “Ratio Tumor/Liver” value was found to be 18.4 ± 8.5 and the “Ratio Tumor/Muscles” value stood at 20.1 ± 2.5. The “log D(O/PBS pH 7.4)” value in data set [2] (shake-flask) is −3.02 ± 0.11.
